Columns and labels:
[1] = tested on: mouse deferent vessel (vas deferens); test: Ex-vivo model: electrically induced contractions of the isolated deferent vessel (vas deferens); set-up: species or system albino CD1 mice; conditions: for Effect on the curve % of inhibition of the contractions/logarithm of the WIN 55212-2 concentration: concentrations lower than or equal to 1×10^−5 M; for Inhibition of the contractions induced by the electric stimulus: concentrations lower than or equal to 1×10^−6 M
From the text: The use of the isolated deferent vessel organ, as a highly sensitive basic system in an ex-vivo model for evaluating the activity of agonist CB1 compounds, has been described by Pertwee et al. in Br. J. Pharmacol., 105:980-4, 1992. This model has been used also to evaluate the properties of antagonist CB1 compounds and to distinguish antagonist CB1 derivatives from inverse agonist CB1 compounds (Rinaldi-Carmona et al., FEBS Lett., 350:240-4, 1994; Pertwee et al., Eur. J. Pharmacol., 456:99-106, 2002). […] This effect is correlated to the action on the prejunctional neuronal CB1 receptors with the consequent release inhibition, induced by electric stimuli, of contractile neurotransmitters (noradrenaline and ATP) (Schlicker and Kathmann, Trends Pharmacol. Sci., 22:565-72, 2001). The inhibition of the contractions induced by the electric stimulus on the deferent vessel in the presence of agonist (or partial agonist) CB1 compounds are expressed as % of contraction inhibition. Said % contraction inhibition is calculated by the ratio between the contraction amplitude determined in the presence of a given concentration of the compound and that detected in its absence (basal value). The curve of the “% of contraction inhibition” as a function of the logarithm of the concentration of agonist (or partial agonist) CB1 compounds, is sigmoidal. The use of the model for the evaluation of antagonist CB1 compounds is based on the evaluation of their efficacy in inhibiting the action of the deferent vessel of agonist (or partial agonist) CB1 compounds. The inhibition is expressed by a shifting towards the right of the curves % of inhibition of contractions/logarithm of the concentration of the agonist CB1 compound, with increasing the concentration of the antagonist CB1 compound.
As reported in the literature, the experimentation has been carried out by using albino CD1 mice weighing 30-40 grams. The mice deferent vessel was recovered and transferred into an instrument for separated organs supplied by the Firm Ugo Basile (Comerio, Italy). The initial tension was of 0.5 g. The procedure adopted is reported in Pertwee et al. in Br. J. Pharmacol., 110:1483-1490, 1993. In particular the procedure and instruments as described by S. Ruiu et al. in J.P.E.T., Vol. 306, 2003, 363-370, have been used.
In a subsequent experiment it was shown that the compound activity was antagonized by the antagonist CB1 compound N-piperidinyl-[8-chloro-1-(2,4-dichlorophenyl)-1,4,5,6-tetrahydrobenzo[6,7]cyclohepta[1,2-c]pyrazol-3-carboxamide], described by S. Ruiu et al. in J.P.E.T., Vol. 306, 2003, 363-370. The experiment was carried out by adding the antagonist (concentration in bath 1 nM) 20 minutes before the first addition of the compound of the invention.

old DBA/2J mice = test: Reduction of intraocular pressure (IOP) after application to the eye, TONOLab tonometer; assay type: in vivo; conditions: for Intraocular Pressure Decrease: versus basal IOP
From the text: The main risk factor in the glaucoma is represented by the high intraocular pressure (IOP). See for instance: Libby R. T. et al., Vis Neurosci. 2005 Sep.-Oct., 22(5):637-48 and Tomida I. et al., Br. J. Opthalmol. 2004 May, 88(5):708-13.
By using the animal model of old DBA/2J mice (see above) it has been evaluated the efficacy of the compound obtained in example 3.1 in reducing the IOP. As said, this compound has a good affinity towards the CB1 receptors in vitro (example 4) and a CB1 agonist action in vivo (example 5). The intraocular pressure has been determined by a TONOLab Tonometer (Tiolat Oy), as reported by M. E. Pease et al. in J. Glaucoma, 2006 December, 15(6):512-519. The compound was dispersed in the commercial emulsion Tocrisolve™, (Tocris), at a concentration of […] and applied to the eye of old DBA/2J mice (8-10 month age; basal IOP comprised between 19.0 and 22.5 mmHg). The applied emulsion volumes were such that the compound doses resulted, respectively, of 100 μg or 50 μg. WIN 55212-2 was dispersed in Tocrisolve™at the concentration of 5 mg/ml and was the reference cannabinoidergic compound. The determination of the ocular pressure was carried out every 30 minutes up to two hours starting from the administration. The obtained results (average of 6 measurements at each time for experimental groups of 8-10 animals for group/dose) are reported in Table 3. IOP decrease was expressed in percent with respect to the basal value.

[2] = 50 μg to the eye in Tocrisolve, 30 minutes
[3] = 50 μg to the eye in Tocrisolve, 60 minutes
[4] = 50 μg to the eye in Tocrisolve, 90 minutes
[5] = 50 μg to the eye in Tocrisolve, 120 minutes
[6] = 100 μg to the eye in Tocrisolve, 30 minutes
[7] = 100 μg to the eye in Tocrisolve, 60 minutes
[8] = 100 μg to the eye in Tocrisolve, 90 minutes
[9] = 100 μg to the eye in Tocrisolve, 120 minutes

## NC(=O)c1nn(-c2ccc(S(N)(=O)=O)cc2)c2c1CCc1sccc1-2 [Compound (XB), 1-(4′-sulphonamidophenyl)-4,5-dihydro-1H-thieno[2,3-g]indazol-3-carboxamide]
[1]
  Effect on the curve % of inhibition of the contractions/logarithm of the WIN 55212-2 concentration: did not significantly modify the slope of the curve
  Inhibition of the contractions induced by the electric stimulus: did not significantly inhibit the contractions
Old DBA/2J mice; [2]
  Intraocular Pressure Decrease: −0.2%
Old DBA/2J mice; [3]
  Intraocular Pressure Decrease: −0.1%
Old DBA/2J mice; [4]
  Intraocular Pressure Decrease: 0.0%
Old DBA/2J mice; [5]
  Intraocular Pressure Decrease: −0.1%
Old DBA/2J mice; [6]
  Intraocular Pressure Decrease: −0.1%
Old DBA/2J mice; [7]
  Intraocular Pressure Decrease: 0.4%
Old DBA/2J mice; [8]
  Intraocular Pressure Decrease: −0.3%
Old DBA/2J mice; [9]
  Intraocular Pressure Decrease: 0.0%
Old DBA/2J mice; dose 50 μg
  Reduction of intraocular pressure: not able to significantly reduce the intraocular pressure
Old DBA/2J mice; dose 100 μg
  Reduction of intraocular pressure: not able to significantly reduce the intraocular pressure

## CCOC(=O)c1nn(-c2ccc(S(N)(=O)=O)cc2)c2c1CCc1sccc1-2 [Compound (XA), 1-(4′-sulphonamidophenyl)-4,5-dihydro-1H-thieno[2,3-g]indazol-3-ethyl carboxylate]
[1]
  Effect on the curve % of inhibition of the contractions/logarithm of the WIN 55212-2 concentration: did not significantly modify the slope of the curve
  Inhibition of the contractions induced by the electric stimulus: did not significantly inhibit the contractions
Old DBA/2J mice; [2]
  Intraocular Pressure Decrease: −0.3%
Old DBA/2J mice; [3]
  Intraocular Pressure Decrease: −0.2%
Old DBA/2J mice; [4]
  Intraocular Pressure Decrease: 0.0%
Old DBA/2J mice; [5]
  Intraocular Pressure Decrease: −0.1%
Old DBA/2J mice; [6]
  Intraocular Pressure Decrease: 0.0%
Old DBA/2J mice; [7]
  Intraocular Pressure Decrease: −0.2%
Old DBA/2J mice; [8]
  Intraocular Pressure Decrease: −0.1%
Old DBA/2J mice; [9]
  Intraocular Pressure Decrease: 0.1%
Old DBA/2J mice; dose 50 μg
  Reduction of intraocular pressure: not able to significantly reduce the intraocular pressure
Old DBA/2J mice; dose 100 μg
  Reduction of intraocular pressure: not able to significantly reduce the intraocular pressure

## Cc1ccc(Cn2nc(C(=O)NCC3CCC4CC3C4(C)C)c3c2-c2sc(C)cc2C3)cc1 (stereo not drawn) [Example 3.1, N-myrtanyl-6-methyl-1-(4′-methylbenzyl)-1,4-dihydrothieno[3′,2′:4,5]cyclopenta[1,2-c]pyrazol-3-carboxamide]
[1]; antagonist N-piperidinyl-[8-chloro-1-(2,4-dichlorophenyl)-1,4,5,6-tetrahydrobenzo[6,7]cyclohepta[1,2-c]pyrazol-3-carboxamide] 1 nM in bath, added 20 minutes before
  Antagonism of the compound activity by a CB1 antagonist: antagonized
[1]; vas deferens model
  Functional character at CB1: CB1 agonist
Old DBA/2J mice; [2]
  Intraocular Pressure Decrease: 15.9%
Old DBA/2J mice; [3]
  Intraocular Pressure Decrease: 15.0%
Old DBA/2J mice; [4]
  Intraocular Pressure Decrease: 12.6%
Old DBA/2J mice; [5]
  Intraocular Pressure Decrease: 11.7%
Old DBA/2J mice; [6]
  Intraocular Pressure Decrease: 23.9%
Old DBA/2J mice; [7]
  Intraocular Pressure Decrease: 22.8%
Old DBA/2J mice; [8]
  Intraocular Pressure Decrease: 19.6%
Old DBA/2J mice; [9]
  Intraocular Pressure Decrease: 21.7%
Old DBA/2J mice; dose 50 μg
  Reduction of intraocular pressure: more effective in reducing IOP than the reference compound
Old DBA/2J mice; dose 100 μg
  Reduction of intraocular pressure: as effective to reduce eye pressure as the reference compound WIN 55212-2
